This is an account of results in ChEMBL document CHEMBL3991601, “The target landscape of clinical kinase drugs” (Science, 2017).

Active and inactive are the calls of the source.

Test [1] deals with Cyclin-dependent kinase 6 (Homo sapiens, UniProt Q00534).
Test [2] addresses T1, Ephrin type-B receptor 6 (Homo sapiens, UniProt O15197).
T1 sequence (O15197 whole entry): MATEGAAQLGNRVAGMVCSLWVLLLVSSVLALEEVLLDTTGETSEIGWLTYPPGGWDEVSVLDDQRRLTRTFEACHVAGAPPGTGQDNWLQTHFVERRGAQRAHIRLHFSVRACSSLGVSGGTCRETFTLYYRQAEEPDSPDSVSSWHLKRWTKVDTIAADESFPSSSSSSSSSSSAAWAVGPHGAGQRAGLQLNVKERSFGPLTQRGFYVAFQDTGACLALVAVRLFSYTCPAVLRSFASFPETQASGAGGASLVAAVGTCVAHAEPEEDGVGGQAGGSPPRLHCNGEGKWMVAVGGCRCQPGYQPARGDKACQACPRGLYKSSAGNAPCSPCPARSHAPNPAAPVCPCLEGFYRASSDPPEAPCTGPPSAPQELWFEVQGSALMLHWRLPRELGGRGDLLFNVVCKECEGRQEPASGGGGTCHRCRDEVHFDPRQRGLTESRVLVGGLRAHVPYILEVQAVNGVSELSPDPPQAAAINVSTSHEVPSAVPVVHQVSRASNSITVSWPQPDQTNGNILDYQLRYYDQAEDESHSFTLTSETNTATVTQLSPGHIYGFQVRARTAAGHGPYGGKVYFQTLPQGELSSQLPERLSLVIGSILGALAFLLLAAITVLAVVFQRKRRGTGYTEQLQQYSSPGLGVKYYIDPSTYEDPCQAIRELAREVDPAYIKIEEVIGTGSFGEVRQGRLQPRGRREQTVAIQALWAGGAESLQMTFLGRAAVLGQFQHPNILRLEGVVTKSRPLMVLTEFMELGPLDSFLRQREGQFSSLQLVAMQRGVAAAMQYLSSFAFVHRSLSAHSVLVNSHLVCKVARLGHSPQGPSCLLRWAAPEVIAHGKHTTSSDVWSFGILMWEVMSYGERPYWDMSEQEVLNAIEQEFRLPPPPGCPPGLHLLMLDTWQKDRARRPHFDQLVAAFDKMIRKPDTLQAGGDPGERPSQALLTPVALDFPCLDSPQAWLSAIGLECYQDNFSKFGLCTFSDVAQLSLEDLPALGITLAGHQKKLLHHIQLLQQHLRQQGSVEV

Test [3] has as its target T2, Mitogen-activated protein kinase 15 (Homo sapiens, UniProt Q8TD08).
T2 sequence (Q8TD08 whole entry): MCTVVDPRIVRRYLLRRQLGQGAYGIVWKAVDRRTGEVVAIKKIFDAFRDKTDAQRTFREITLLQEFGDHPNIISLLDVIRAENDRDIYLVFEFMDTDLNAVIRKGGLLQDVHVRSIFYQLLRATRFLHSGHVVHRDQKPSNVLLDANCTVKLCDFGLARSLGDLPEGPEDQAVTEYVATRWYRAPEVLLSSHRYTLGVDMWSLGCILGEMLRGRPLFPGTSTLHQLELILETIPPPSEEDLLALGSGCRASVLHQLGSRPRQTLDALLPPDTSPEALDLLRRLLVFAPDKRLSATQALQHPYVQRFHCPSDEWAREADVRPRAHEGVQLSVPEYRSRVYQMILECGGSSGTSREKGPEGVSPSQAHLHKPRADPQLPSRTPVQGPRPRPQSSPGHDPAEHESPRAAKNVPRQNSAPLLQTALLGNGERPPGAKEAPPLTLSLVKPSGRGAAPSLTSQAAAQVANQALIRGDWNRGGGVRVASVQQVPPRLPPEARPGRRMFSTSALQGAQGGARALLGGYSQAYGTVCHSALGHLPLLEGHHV

In test [4] the target is Ras-related protein Rab-6A (Homo sapiens, UniProt P20340).
Test [5] deals with U5 small nuclear ribonucleoprotein 200 kDa helicase (Homo sapiens, UniProt O75643).
Test [6] concerns the target Wee1-like protein kinase (Homo sapiens, UniProt P30291).
For test [7], the target named is T3, Serine/threonine-protein kinase STK11 (Homo sapiens, UniProt Q15831).
T3 sequence (Q15831 whole entry): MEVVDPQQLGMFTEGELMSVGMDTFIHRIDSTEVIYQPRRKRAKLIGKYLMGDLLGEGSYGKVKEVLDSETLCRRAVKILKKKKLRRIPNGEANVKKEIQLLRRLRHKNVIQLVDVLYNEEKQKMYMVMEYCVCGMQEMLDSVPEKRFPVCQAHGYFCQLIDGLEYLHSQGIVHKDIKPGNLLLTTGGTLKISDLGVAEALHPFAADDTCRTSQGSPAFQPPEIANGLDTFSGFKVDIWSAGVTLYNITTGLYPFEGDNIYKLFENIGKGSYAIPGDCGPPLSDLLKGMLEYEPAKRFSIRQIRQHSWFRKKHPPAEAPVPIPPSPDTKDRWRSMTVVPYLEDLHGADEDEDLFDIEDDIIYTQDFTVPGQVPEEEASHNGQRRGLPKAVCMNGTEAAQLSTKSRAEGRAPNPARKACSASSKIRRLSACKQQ

Test [8] deals with Dual specificity testis-specific protein kinase 1 (Homo sapiens, UniProt Q15569).
Note: in the data inactive means no Kd found up to 30 µM.

Ras-related protein Rab-6A, sequence (P20340 whole entry): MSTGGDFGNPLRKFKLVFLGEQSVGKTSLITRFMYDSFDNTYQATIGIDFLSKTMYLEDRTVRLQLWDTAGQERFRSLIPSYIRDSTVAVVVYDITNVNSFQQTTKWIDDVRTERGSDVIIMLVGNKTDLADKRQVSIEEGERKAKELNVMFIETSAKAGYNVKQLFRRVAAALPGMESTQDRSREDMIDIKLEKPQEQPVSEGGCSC
Wee1-like protein kinase, sequence (P30291 whole entry): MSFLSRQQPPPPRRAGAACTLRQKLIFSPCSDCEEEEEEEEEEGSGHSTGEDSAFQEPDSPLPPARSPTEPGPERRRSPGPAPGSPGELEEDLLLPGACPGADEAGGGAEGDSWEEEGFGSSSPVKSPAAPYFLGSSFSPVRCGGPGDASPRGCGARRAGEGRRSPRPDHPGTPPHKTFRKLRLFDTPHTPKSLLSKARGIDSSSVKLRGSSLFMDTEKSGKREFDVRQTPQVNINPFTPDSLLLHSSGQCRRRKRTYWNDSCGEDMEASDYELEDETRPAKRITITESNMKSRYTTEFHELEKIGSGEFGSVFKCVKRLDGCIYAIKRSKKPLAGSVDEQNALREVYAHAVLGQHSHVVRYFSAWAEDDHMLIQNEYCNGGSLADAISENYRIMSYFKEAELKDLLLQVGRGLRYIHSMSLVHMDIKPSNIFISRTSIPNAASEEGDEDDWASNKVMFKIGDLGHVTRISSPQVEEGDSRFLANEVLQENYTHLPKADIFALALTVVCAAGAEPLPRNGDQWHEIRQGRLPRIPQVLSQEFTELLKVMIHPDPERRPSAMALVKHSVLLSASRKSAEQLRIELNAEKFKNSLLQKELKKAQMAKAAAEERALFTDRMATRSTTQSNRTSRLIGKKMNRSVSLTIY
Cyclin-dependent kinase 6, sequence (Q00534 whole entry): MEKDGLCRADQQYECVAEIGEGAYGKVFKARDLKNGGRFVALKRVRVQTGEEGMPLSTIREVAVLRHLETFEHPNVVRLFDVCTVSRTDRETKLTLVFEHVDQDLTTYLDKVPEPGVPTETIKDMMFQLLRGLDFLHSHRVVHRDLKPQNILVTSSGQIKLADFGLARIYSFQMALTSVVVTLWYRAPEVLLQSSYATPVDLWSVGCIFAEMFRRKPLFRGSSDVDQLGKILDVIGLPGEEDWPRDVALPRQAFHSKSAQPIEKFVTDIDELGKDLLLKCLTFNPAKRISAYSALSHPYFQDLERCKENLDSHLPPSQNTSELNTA
U5 small nuclear ribonucleoprotein 200 kDa helicase, sequence (O75643 whole entry): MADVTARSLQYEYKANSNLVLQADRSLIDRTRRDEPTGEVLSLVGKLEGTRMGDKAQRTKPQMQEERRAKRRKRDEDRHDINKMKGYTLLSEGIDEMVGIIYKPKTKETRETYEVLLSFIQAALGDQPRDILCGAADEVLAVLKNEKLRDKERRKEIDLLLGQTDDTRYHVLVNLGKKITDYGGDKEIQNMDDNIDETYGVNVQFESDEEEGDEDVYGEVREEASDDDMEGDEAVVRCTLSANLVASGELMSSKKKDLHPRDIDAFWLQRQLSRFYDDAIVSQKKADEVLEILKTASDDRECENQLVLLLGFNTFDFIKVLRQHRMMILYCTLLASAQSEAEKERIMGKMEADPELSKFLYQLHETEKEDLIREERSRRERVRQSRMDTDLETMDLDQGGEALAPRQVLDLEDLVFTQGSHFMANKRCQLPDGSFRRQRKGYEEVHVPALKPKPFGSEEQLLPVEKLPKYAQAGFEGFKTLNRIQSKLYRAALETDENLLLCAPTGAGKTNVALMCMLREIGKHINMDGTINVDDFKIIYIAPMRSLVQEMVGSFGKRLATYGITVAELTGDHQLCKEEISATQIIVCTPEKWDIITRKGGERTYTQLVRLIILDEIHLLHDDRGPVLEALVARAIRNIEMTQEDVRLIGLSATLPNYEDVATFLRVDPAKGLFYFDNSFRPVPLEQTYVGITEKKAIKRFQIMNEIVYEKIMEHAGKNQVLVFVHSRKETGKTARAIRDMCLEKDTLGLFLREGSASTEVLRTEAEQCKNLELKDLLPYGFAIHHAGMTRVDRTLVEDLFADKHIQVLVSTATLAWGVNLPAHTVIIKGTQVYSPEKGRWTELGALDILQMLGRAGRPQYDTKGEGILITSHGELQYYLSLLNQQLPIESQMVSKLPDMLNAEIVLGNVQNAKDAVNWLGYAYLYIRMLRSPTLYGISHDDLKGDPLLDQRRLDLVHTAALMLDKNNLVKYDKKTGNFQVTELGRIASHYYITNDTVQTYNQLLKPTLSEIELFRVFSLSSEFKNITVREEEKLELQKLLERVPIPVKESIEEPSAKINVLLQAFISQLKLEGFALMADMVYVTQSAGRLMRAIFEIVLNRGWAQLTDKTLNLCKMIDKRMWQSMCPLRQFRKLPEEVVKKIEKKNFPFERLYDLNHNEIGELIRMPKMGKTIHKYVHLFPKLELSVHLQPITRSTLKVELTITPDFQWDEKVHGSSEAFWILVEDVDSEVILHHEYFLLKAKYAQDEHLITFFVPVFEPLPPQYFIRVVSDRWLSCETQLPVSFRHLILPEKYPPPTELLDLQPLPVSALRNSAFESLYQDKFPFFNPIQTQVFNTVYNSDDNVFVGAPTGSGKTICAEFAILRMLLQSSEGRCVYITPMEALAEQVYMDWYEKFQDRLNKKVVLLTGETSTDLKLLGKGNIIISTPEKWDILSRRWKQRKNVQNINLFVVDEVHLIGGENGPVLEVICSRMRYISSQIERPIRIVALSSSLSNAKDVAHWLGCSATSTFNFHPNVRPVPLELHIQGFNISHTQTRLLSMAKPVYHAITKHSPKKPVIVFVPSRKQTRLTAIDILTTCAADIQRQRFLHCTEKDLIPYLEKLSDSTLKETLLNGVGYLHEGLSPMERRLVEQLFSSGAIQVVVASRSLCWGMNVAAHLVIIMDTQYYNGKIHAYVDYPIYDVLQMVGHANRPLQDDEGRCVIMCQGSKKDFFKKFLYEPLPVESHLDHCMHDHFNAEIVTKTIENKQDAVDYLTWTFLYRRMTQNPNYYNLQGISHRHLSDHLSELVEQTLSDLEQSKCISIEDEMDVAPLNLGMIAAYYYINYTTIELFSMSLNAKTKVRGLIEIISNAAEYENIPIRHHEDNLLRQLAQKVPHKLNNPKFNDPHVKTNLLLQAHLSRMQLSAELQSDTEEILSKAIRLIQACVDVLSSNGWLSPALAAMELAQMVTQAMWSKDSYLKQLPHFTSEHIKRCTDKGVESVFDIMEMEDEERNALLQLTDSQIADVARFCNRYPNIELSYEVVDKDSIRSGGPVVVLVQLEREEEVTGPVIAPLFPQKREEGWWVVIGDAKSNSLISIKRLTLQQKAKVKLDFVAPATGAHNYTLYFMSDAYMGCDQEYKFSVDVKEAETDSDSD
Dual specificity testis-specific protein kinase 1, sequence (Q15569 whole entry): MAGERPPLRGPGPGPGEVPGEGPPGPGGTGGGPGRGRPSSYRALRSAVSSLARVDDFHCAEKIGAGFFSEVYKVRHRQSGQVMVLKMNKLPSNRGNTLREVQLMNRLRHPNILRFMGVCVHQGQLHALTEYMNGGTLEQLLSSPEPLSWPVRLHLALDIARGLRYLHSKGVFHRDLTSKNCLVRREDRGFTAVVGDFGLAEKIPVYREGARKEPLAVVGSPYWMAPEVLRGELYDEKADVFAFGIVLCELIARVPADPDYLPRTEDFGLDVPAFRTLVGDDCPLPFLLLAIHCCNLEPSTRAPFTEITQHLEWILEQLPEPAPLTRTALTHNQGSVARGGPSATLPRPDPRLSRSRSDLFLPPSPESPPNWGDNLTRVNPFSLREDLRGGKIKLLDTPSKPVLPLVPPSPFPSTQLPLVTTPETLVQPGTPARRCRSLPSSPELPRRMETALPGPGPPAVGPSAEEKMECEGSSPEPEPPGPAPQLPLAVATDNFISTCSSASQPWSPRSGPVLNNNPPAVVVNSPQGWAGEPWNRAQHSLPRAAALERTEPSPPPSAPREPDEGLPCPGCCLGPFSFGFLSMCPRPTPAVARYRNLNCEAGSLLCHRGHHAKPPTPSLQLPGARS

As a reminder, the Kd is the equilibrium constant for the complex coming apart. `C[C@@H](Oc1cc(C(=O)Nc2ccc(C(=O)N3CCN(C)CC3)cc2)nnc1N)c1c(Cl)ccc(F)c1Cl`: the Kd in test [1], in test [2], in test [3], in test [4], in test [5] and in test [6] was > 30 µM (inactive) throughout.
With `C[C@H]1CNCCCN1S(=O)(=O)c1cccc2cncc(F)c12`, the Kd in test [1], in test [2], in test [4], in test [5], in test [7] and in test [8] was > 30 µM (inactive) throughout. In addition, the Kd in test [6] was > 30 µM (inactive).
Turning to `CC(=O)c1cnc2ccc(-c3cc(Cl)c(O)c(Cl)c3)nc2c1N[C@H]1CC[C@H](CN(C)C)CC1`, the Kd is > 30 µM (inactive) in test [1]; 0.521 µM (active) in test [2]; 0.09 µM (active) in test [3]; > 30 µM (inactive) in test [4]; > 30 µM (inactive) in test [5]; > 30 µM (inactive) in test [7]. In addition, the Kd in test [6] was > 30 µM (inactive).
Regarding `C=CC(=O)N1CCC[C@H](n2c(=O)n(-c3ccc(Oc4ccccc4)cc3)c3c(N)ncnc32)C1`, the Kd in test [1], in test [2], in test [3], in test [5], in test [7] and in test [8] was > 30 µM (inactive) throughout. In test [6], the Kd was > 30 µM (inactive).
Turning to `Nc1ncnc2c1c(-c1cccc(OCc3ccccc3)c1)cn2[C@H]1C[C@@H](CN2CCC2)C1` [AEW-541], the Kd in test [1], in test [2], in test [3], in test [4], in test [5] and in test [7] was > 30 µM (inactive) each time. For the same compound, the Kd in test [6] was > 30 µM (inactive).
Regarding `Cc1csc(-c2nnc(Nc3ccc(Oc4ncccc4-c4ccnc(N)n4)cc3)c3ccccc23)c1` [AMG-900], the Kd in test [1], in test [2], in test [3], in test [4], in test [5] and in test [8] was > 30 µM (inactive) throughout. The Kd in test [6] is > 30 µM (inactive).
In the case of `O=C(Nc1c[nH]nc1-c1nc2cc(CN3CCOCC3)ccc2[nH]1)NC1CC1` [AT-9283], the Kd in test [2] was 0.012 µM (active); in test [3], > 30 µM (inactive); in test [4] it was > 30 µM (inactive); in test [5] it was > 30 µM (inactive); in test [7], > 30 µM (inactive); in test [8] it was > 30 µM (inactive). Further, in test [6], the Kd is > 30 µM (inactive).
Regarding `CNC(=O)c1ccccc1Sc1ccc2c(/C=C/c3ccccn3)n[nH]c2c1` [AXITINIB], the Kd in test [1], in test [4] and in test [5] was > 30 µM (inactive) each time.
Consider `NC(=O)Nc1cc(-c2cccc(F)c2)sc1C(=O)N[C@H]1CCCNC1` [AZD-7762], for which the Kd in test [1], in test [3], in test [4], in test [5], in test [7] and in test [8] was > 30 µM (inactive) throughout. In addition, the Kd in test [6] is > 30 µM (inactive).
For `Cc1cc(C(=O)NOCCO)c(Nc2ccc(I)cc2F)n(C)c1=O` [AZD-8330], the Kd in test [1], in test [2], in test [3], in test [4], in test [5] and in test [7] was > 30 µM (inactive) in each case. The Kd in test [6] was > 30 µM (inactive).
On to `Cn1cc(C2=C(c3cn(C4CCN(Cc5ccccn5)CC4)c4ccccc34)C(=O)NC2=O)c2ccccc21` [ENZASTAURIN], for which the Kd in test [1], in test [4] and in test [5] was > 30 µM (inactive) throughout.
As for `C[C@@H](Oc1cc(-n2cnc3ccc(CN4CCN(C)CC4)cc32)sc1C(N)=O)c1ccccc1C(F)(F)F` [GSK-461364], the Kd in test [1], in test [4] and in test [5] was > 30 µM (inactive) in each case.
Take `CCn1cc(-c2ccnc3[nH]c(-c4cccc(CN(C)C)c4)cc23)c(-c2ccc(NC(=O)N(C)C)cc2)n1` [GSK-1070916]: the Kd in test [1] was > 30 µM (inactive); in test [2], 3.77 µM (active); in test [3], > 30 µM (inactive); in test [4], > 30 µM (inactive); in test [5], > 30 µM (inactive); in test [7], > 30 µM (inactive). Further, the Kd in test [6] is > 30 µM (inactive).
With `NC1(c2ccc(-c3nc4ccn5c(=O)[nH]nc5c4cc3-c3ccccc3)cc2)CCC1` [MK-2206], the Kd in test [1], in test [2], in test [3], in test [5], in test [7] and in test [8] was > 30 µM (inactive) throughout. In addition, the Kd in test [6] is > 30 µM (inactive).
For `Cc1[nH]c(/C=C2\C(=O)Nc3ccccc32)c(C)c1CCC(=O)O` [ORANTINIB], the Kd in test [1], in test [3], in test [5], in test [8] and in test [6] was > 30 µM (inactive) each time.
Consider `CCOc1cc2ncc(C#N)c(Nc3ccc(F)c(Cl)c3)c2cc1NC(=O)/C=C/CN(C)C` [PELITINIB], for which the Kd in test [1], in test [2], in test [3], in test [4], in test [5] and in test [7] was > 30 µM (inactive) each time. Besides, the Kd in test [8] is > 30 µM (inactive).
Consider `O=C(NOCCO)c1cc(CN2OCCCC2=O)c(F)c(F)c1Nc1ccc(I)cc1F` [RO-4987655], for which the Kd in test [1], in test [4] and in test [5] was > 30 µM (inactive) each time.
In the case of `N#CC[C@H](C1CCCC1)n1cc(-c2ncnc3[nH]ccc23)cn1` [RUXOLITINIB], the Kd in test [1] and in test [5] was > 30 µM (inactive) in each case.
On to `Cn1ncc(Cl)c1-c1cc(C(=O)N[C@H](CN)Cc2ccc(F)c(F)c2)oc1Cl` [UPROSERTIB], for which the Kd in test [1], in test [2], in test [3], in test [4], in test [5] and in test [7] was > 30 µM (inactive) throughout. Moreover, the Kd in test [6] was > 30 µM (inactive).
